Laboratory results as given in US20260061065A1, “ANTIBODY DRUG CONJUGATES” (priority 2022, published 2026).

Assays:
Type in all cases: cell-based
[1] = test system: EBC-1 lung cancer cells; experiment: CellTiter-Glo proliferation assay, EBC1
Method: (§1) OCUM-1: Stomach/gastric cancer—JCRB No. JCRB0192 cultured in DMEM+0.5 mM sodium pyruvate+10% FBS EBC-1: Lung cancer—JCRB No. JCRB0820 cultured in DMEM+10% FBS SKCO-1: Colon cancer—ATCC No. HTB-39 cultured in Eagle's Minimum Essential Medium+10% FBS The Her2 antibody drug conjugates were tested against nine endogenous cancer cell lines. NCI-N87: Stomach/gastric cancer—ATCC No. CRL-5822 cultured in RPMI-1640+10% FBS The PCAD antibody drug conjugates were tested against nine endogenous cancer cell lines. BICR-22: Tongue cancer—ECACC No. 04072106 cultured in DMEM+2 mM Glutamine+2% FBS+0.4 micrograms/ml Hydrocortisone
(§2) The ability of the antibody drug conjugates to inhibit cell proliferation and survival was assessed using the Promega CellTiter-Glo® proliferation assay.
(§3) Cell lines were cultured in media that is optimal for their growth at 5% CO2, 37° C. in a tissue culture incubator. […] On the day of seeding, cell viability and cell density were determined using a cell counter (Vi-Cell XR Cell Viability Analyzer, Beckman Coulter). […] Plates were incubated at 5% CO2, 37° C. for 5 days in a tissue culture incubator, after which cell viability was assessed through the addition of 25 μL of CellTiter Glo® (Promega, cat #G7573), a reagent which lyses cells and measures total adenosine triphosphate (ATP) content. […]

[2] = test system: OCUM-1 stomach/gastric cancer cells; experiment: CellTiter-Glo proliferation assay, OCUM1
Method: as §1, §2, §3

[3] = test system: SKCO-1 colon cancer cells; experiment: CellTiter-Glo proliferation assay, SKCO1
Method: as §1, §2, §3

[4] = test system: NCI-N87 stomach/gastric cancer cells; experiment: CellTiter-Glo proliferation assay, NCIN87
Method: as §1, §2, §3

[5] = test system: BICR-22 tongue cancer cells; experiment: CellTiter-Glo proliferation assay, BICR22
Method: as §1, §2, §3

CCC(C)[C@@H]([C@@H](CC(=O)N1CCC[C@H]1[C@H](OC)[C@@H](C)C(=O)N[C@@H](Cc1ccccc1)c1nccs1)OC)N(C)C(=O)[C@@H](NC(=O)[C@H]1N[C@@H]2CC[C@H]1C2)C(C)C (stereo partly shown) [Auristatin#1]
IC50 ([1]; Homo sapiens, EBC-1, 120 h): 0.23 nM
Amax (Span) ([1]; Unconjugated drug cytotoxicity, EBC1, 5 days): 77.0
IC50 ([2]; OCUM1, 120 h): 1.38 nM
Amax (Span) ([2]; Unconjugated drug cytotoxicity, OCUM1, 5 days): 72.3
IC50 ([3]; Homo sapiens, SK-CO-1, 120 h): 1.13 nM
Amax (Span) ([3]; Unconjugated drug cytotoxicity, SKCO1, 5 days): 81.6
IC50 ([4]; Homo sapiens, NCI-N87, 120 h): 1.2 nM
Amax (Span) ([4]; Unconjugated drug cytotoxicity, NCIN87, 5 days): 75.7
IC50 ([5]; 120 h): 0.271 nM
Amax (Span) ([5]; Unconjugated drug cytotoxicity, BICR22, 5 days): 89.7
